Reference: publication PMC6934184, “Selective DNA-PKcs inhibition extends the therapeutic index of localized radiotherapy and chemotherapy” (The Journal of Clinical Investigation, 2019)

Target: T1, MAP3K5 (ASK1) (Homo sapiens, UniProt Q99683)
T1 construct: purchased Thermo Fisher Scientific (Life Technologies) SelectScreen
Assay: SelectScreen LanthaScreen
Format: binding
Conditions: read-out: % displacement
Method in brief: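 SelectScreen broad panel; activity (Z'LYTE, Adapta) plus binding formats. ATP: Km app for CSF1R Z'LYTE; 10 for CAMK1 Adapta. Readout = % per kinase.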

T1 sequence (Q99683 whole entry): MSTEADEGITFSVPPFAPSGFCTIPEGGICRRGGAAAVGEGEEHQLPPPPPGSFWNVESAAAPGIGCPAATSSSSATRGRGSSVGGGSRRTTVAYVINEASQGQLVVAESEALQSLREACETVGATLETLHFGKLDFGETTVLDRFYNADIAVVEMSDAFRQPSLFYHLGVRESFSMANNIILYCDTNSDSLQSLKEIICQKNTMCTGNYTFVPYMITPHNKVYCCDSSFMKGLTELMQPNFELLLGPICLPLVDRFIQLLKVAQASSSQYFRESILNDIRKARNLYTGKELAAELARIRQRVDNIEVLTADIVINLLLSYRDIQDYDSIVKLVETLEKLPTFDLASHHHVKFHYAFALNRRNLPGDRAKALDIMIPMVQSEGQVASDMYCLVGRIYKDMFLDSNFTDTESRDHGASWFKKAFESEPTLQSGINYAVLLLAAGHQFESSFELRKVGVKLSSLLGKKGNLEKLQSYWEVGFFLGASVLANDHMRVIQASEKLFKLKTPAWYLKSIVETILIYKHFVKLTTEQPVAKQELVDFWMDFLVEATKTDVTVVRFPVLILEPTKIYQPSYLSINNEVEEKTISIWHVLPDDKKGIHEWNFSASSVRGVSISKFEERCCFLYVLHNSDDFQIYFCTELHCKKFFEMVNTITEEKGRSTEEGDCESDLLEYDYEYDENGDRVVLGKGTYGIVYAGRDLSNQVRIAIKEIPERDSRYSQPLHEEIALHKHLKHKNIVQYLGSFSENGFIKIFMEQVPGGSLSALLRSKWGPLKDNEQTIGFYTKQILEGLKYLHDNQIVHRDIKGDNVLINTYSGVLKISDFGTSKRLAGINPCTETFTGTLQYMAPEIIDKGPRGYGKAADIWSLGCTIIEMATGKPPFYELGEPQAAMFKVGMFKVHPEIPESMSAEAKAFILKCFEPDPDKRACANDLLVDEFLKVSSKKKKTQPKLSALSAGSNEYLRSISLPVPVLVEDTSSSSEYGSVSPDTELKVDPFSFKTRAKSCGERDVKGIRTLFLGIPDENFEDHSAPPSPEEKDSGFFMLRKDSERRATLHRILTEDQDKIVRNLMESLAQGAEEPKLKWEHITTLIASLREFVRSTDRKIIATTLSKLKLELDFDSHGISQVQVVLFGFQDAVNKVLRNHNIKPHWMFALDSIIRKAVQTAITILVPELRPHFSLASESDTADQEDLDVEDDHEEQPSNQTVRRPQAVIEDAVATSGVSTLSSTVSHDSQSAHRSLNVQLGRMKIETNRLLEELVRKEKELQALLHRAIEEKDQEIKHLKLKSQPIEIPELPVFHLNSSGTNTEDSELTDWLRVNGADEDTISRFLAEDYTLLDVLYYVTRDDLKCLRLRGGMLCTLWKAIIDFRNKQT

## CN(C(=O)CN1CCOCC1)c1ccc2sc3c(-c4cccc5c(=O)cc(N6CC7CCC(C6)O7)oc45)cccc3c2c1 [NU5455]
  inhibition at 1 µM: 2.3%
